The compounds below were run against T1, hCRTH2 (Homo sapiens, UniProt Q9Y5Y4) (assay: Radioligand binding assay ([3H]PGD2 competition, HEK-hCRTH2 membranes)). Conditions: [3H]PGD2 binding, rated A-E (Table A).
T1 construct: expressed in transfected cells; host or cells: HEK (human embryonic kidney) cells expressing hCRTH2; membrane preparation
T1 sequence (Q9Y5Y4 1-395): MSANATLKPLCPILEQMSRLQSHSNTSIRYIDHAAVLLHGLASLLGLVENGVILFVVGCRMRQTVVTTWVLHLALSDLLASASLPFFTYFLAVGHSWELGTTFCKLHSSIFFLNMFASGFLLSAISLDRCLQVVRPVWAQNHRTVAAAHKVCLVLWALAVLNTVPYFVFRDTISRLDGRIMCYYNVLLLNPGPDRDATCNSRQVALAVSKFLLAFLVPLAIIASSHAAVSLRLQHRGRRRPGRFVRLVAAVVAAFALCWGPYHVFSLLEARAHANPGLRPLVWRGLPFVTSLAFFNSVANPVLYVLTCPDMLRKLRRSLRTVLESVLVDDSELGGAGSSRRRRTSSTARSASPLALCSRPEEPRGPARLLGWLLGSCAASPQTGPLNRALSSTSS
Summary of the method: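 Displacement of 3.0 nM [3H]PGD2 from human CRTH2 expressed in HEK membranes was measured at room temperature over 60 min. Unlabelled PGD2 at 10 μM gave non-specific binding.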

`O=C(O)CCCCc1nc2cc(C(=O)NCc3ccc(F)cc3)ccc2nc1-c1ccc(F)cc1` [compound 109, 3-(4-fluorophenyl)-7-[[[(4-fluorophenyl)methyl]amino]carbonyl]-2-quinoxalinepentanoic acid] and `O=C(O)CCCCc1nc2cc(C(=O)NCc3ccc(C(F)(F)F)cc3)ccc2nc1-c1ccc(F)cc1` [compound 112] fall in the same range of Ki: 2.1 to 20 nM for the first, 2.1 to 20 nM for the second.

`C[C@@H](NC(=O)c1ccc2nc(-c3ccc(F)cc3)c(CCCCC(=O)O)nc2c1)c1ccc(F)cc1` [compound 110, 3-(4-fluorophenyl)-7-[[[1(R)-(4-fluorophenyl)ethyl]amino]carbonyl]-2-quinoxalinepentanoic acid] and `C[C@H](NC(=O)c1ccc2nc(-c3ccc(F)cc3)c(CCCCC(=O)O)nc2c1)c1ccc(F)cc1` [compound 111, 3-(4-fluorophenyl)-7-[[[1(S)-(4-fluorophenyl)ethyl]amino]carbonyl]-2-quinoxalinepentanoic acid] fall in the same range of Ki: 2.1 to 20 nM for the first, 2.1 to 20 nM for the second.

`COCCn1c(=O)n(C2CCN(C(=O)c3ccc4nc(-c5ccccc5)c(CCCCC(=O)O)nc4c3)CC2)c2ccccc21` [compound 113, 7-[[4-[2,3-dihydro-3-(2-methoxyethyl)-2-oxo-1H-benzimidazol-1-yl]-1 - piperidinyl]carbonyl]-3-phenyl-2-quinoxalinepentanoic acid] and `O=C(O)CCCCc1nc2cc(C(=O)N3CCC(n4c(=O)[nH]c5ccccc54)CC3)ccc2nc1-c1ccccc1` [compound 117, 7-[[4-(2,3-dihydro-2-oxo-1H-benzimidazol-1-yl)-1-piperidinyl]carbonyl]-3-phenyl-2-quinoxalinepentanoic acid] fall in the same range of Ki: 2.1 to 20 nM for the first, 2.1 to 20 nM for the second.

First: CO/N=C(/c1ccccn1)C1CCN(C(=O)c2ccc3nc(-c4ccccc4)c(CCCCC(=O)O)nc3c2)CC1 [compound 114, 7-[[4-[(E)-(methoxyimino)-2-pyridinylmethyl]-1-piperidinyl]carbonyl]-3-phenyl-2-quinoxalinepentanoic acid]
Second: O=C(O)CCCCc1nc2cc(C(=O)N3CC[C@@H](c4ccccc4)C3)ccc2nc1-c1ccccc1 [compound 140, 3-phenyl-7-[(3(S)-phenyl-1-pyrrolidinyl)carbonyl]-2-quinoxalinepentanoic acid]
The Ki of the first is higher: 2.1 to 20 nM for the first, 0.1 to 2 nM for the second. The second binds more tightly here.

`O=C(O)CCCCc1nc2cc(C(=O)N3CC=C(c4ccccc4)CC3)ccc2nc1-c1ccccc1` [compound 116, 7-(4-phenyl-1,2,3,6-tetrahydropyridine-1-carbonyl)-3-phenyl-2-quinoxalinepentanoic acid] and `O=C(O)CCCCc1nc2cc(C(=O)N3CC=C(c4ccccc4)CC3)ccc2nc1-c1ccc(F)cc1` [compound 127, 5-(3-(4-fluorophenyl)-7-(4-phenyl-1,2,3,6-tetrahydropyridine-1-carbonyl)quinoxalin-2-yl)pentanoic acid] fall in the same range of Ki: 2.1 to 20 nM for the first, 2.1 to 20 nM for the second.

`CS(=O)(=O)N1CC2(CCN(C(=O)c3ccc4nc(-c5ccccc5)c(CCCCC(=O)O)nc4c3)CC2)c2ccccc21` [compound 118, 7-[[1,2-dihydro-1-(methylsulfonyl)spiro[3H-indole-3,4′-piperidin]-1′-yl]carbonyl]-3-phenyl-2-quinoxalinepentanoic acid] and `CN1CC2(CCN(C(=O)c3ccc4nc(-c5ccccc5)c(CCCCC(=O)O)nc4c3)CC2)c2ccccc21` [compound 122, 7-[(1,2-dihydro-1-methylspiro[3H-indole-3,4′-piperidin]-1′-yl)carbonyl]-3-phenyl-2-quinoxalinepentanoic acid] fall in the same range of Ki: 2.1 to 20 nM for the first, 2.1 to 20 nM for the second.

`CN1C(=O)C2(CCN(C(=O)c3ccc4nc(-c5ccccc5)c(CCCCC(=O)O)nc4c3)CC2)c2ccccc21` [compound 119] and `CC(=O)N1CC2(CCN(C(=O)c3ccc4nc(-c5ccccc5)c(CCCCC(=O)O)nc4c3)CC2)c2ccccc21` [compound 123, 7-[(1-acetyl-1,2-dihydrospiro[3H-indole-3,4′-piperidin]-1′-yl)carbonyl]-3-phenyl-2-quinoxalinepentanoic acid] fall in the same range of Ki: 2.1 to 20 nM for the first, 2.1 to 20 nM for the second.

`O=C(O)CCCCc1nc2cc(C(=O)N3CCC4(CC3)COc3ccccc34)ccc2nc1-c1ccccc1` [compound 120, 3-phenyl-7-(spiro[benzofuran-3(2H),4′-piperidin]-1′-ylcarbonyl)-2-quinoxalinepentanoic acid] and `O=C(O)CCCCc1nc2cc(C(=O)N3CCC4(CCc5ccccc54)CC3)ccc2nc1-c1ccccc1` [compound 121, 7-[(2,3-dihydrospiro [1H-indene-1,4′-piperidin]-1′-yl)carbonyl]-3-phenyl-2-quinoxalinepentanoic acid] fall in the same range of Ki: 2.1 to 20 nM for the first, 2.1 to 20 nM for the second.

`N#CC1(c2ccccc2)CCN(C(=O)c2ccc3nc(-c4ccccc4)c(CCCCC(=O)O)nc3c2)CC1` [compound 124, 7-[(4-cyano-4-phenyl-1-piperidinyl)carbonyl]-3-phenyl-2-quinolaxinepentanoic acid] and `N#CC1(c2ccccc2)CCN(C(=O)c2ccc3nc(-c4ccc(F)cc4)c(CCCCC(=O)O)nc3c2)CC1` [compound 128] fall in the same range of Ki: 2.1 to 20 nM for the first, 2.1 to 20 nM for the second.

`O=C(O)CCCCc1nc2cc(C(=O)N3CCC4(CC3)C(=O)NCN4c3ccccc3)ccc2nc1-c1ccccc1` [compound 125, 7-[(4-oxo-l-phenyl-1,3,8-triazaspiro[4.5]dec-8-yl)carbonyl]-3-phenyl-2-quinoxalinepentanoic acid] and `O=C(O)CCCCc1nc2cc(C(=O)N3CCC4(CC3)C(=O)NCN4c3ccccc3)ccc2nc1-c1ccc(F)cc1` [compound 126, 3-(4-fluorophenyl)-7-[(4-oxo-1-phenyl-1,3,8-triazaspiro[4.5]dec-8-yl)carbonyl]-2-quinoxalinepentanoic acid] fall in the same range of Ki: 2.1 to 20 nM for the first, 2.1 to 20 nM for the second.

First: O=C(O)CCCCc1nc2cc(C(=O)NCc3ccccc3)ccc2nc1-c1ccc(F)cc1 [compound 129, 3-(4-fluorophenyl)-7-[[(phenylmethyl)amino]carbonyl]-2-quinoxalinepentanoic acid]
Second: C[C@@H](NC(=O)c1ccc2nc(-c3ccc(F)cc3)c(CCCCC(=O)O)nc2c1)c1ccccc1 [compound 132, 3-(4-fluorophenyl)-7-[[(1(R)-phenylethyl)amino]carbonyl]-2-quinoxalinepentanoic acid]
The Ki of the first is lower: 0.1 to 2 nM for the first, 2.1 to 20 nM for the second.

First: C[C@@H](NC(=O)c1ccc2nc(-c3ccc(F)cc3)c(CCCCC(=O)O)nc2c1)c1ccc(Cl)cc1 [compound 130, 7-[[[1(R)-(4-chlorophenyl)ethyl]amino]carbonyl]-3-(4-fluorophenyl)-2-quinoxalinepentanoic acid]
Second: C[C@H](NC(=O)c1ccc2nc(-c3ccc(F)cc3)c(CCCCC(=O)O)nc2c1)c1ccc(Cl)cc1 [compound 131, 7-[[[1(S)-(4-chlorophenyl)ethyl]amino]carbonyl]-3-(4-fluorophenyl)-2-quinoxalinepentanoic acid]
The Ki of the first is lower: 0.1 to 2 nM for the first, 2.1 to 20 nM for the second.

First: C[C@H](NC(=O)c1ccc2nc(-c3ccc(F)cc3)c(CCCCC(=O)O)nc2c1)c1ccccc1 [compound 133, 3-(4-fluorophenyl)-7-[[(1(S)-phenylethyl)amino]carbonyl]-2-quinoxalinepentanoic acid]
Second: O=C(O)CCCCc1nc2cc(C(=O)N[C@H](c3ccccc3)C(F)(F)F)ccc2nc1-c1ccc(F)cc1 [compound 137, 3-(4-fluorophenyl)-7-[[[2,2,2-2-trifluoro-1(R)-phenylethyl)amino]carbonyl]-2-quinoxalinepentanoic acid]
The Ki of the first is lower: 2.1 to 20 nM for the first, 20.1 to 200 nM for the second. The first binds more tightly here.

First: O=C(O)CCCCc1nc2cc(C(=O)N3CCC(O)(c4ccc(Cl)cc4)CC3)ccc2nc1-c1ccc(F)cc1 [compound 134, 7-[[4-(4-chlorophenyl)-4-hydroxy-1-piperidinyl]carbonyl]-3-(4-fluorophenyl)-2-quinoxalinepentanoic acid]
Second: O=C(O)CCCCc1nc2cc(C(=O)N3CCC(c4ccc(Cl)cc4)CC3)ccc2nc1-c1ccc(F)cc1 [compound 135]
The Ki of the first is lower: 0.1 to 2 nM for the first, 2.1 to 20 nM for the second.

`O=C(O)CCCCc1nc2cc(C(=O)N3CC=C(c4ccc(Cl)cc4)CC3)ccc2nc1-c1ccc(F)cc1` [compound 136, 7-[[4-(4-chlorophenyl)-3,6-dihydro-1(2H)-pyridinyl]carbonyl]-3-(4-fluorophenyl)-2-quinoxalinepentanoic acid] and `O=C(O)CCCCc1nc2cc(C(=O)N[C@@H](c3ccc(F)cc3)C(F)(F)F)ccc2nc1-c1ccc(F)cc1` [compound 138, 3-(4-fluorophenyl)-7-[[[2,2,2-trifluoro-1(S)-(4-fluorophenyl)ethyl]amino]carbonyl]-2-quinoxalinepentanoic acid] fall in the same range of Ki: 2.1 to 20 nM for the first, 2.1 to 20 nM for the second.

`O=C(O)CCCCc1nc2cc(C(=O)N[C@H](c3ccc(F)cc3)C(F)(F)F)ccc2nc1-c1ccc(F)cc1` [compound 139, 3-(4-fluorophenyl)-7-[[[(1R)-2,2,2-trifluoro-1-(4-fluorophenyl)ethyl]amino]carbonyl]-2-quinoxalinepentanoic acid] and `O=C(O)CCCCc1nc2cc(C(=O)N3CC[C@H](c4ccccc4)C3)ccc2nc1-c1ccccc1` [compound 141, 3-phenyl-7-[(3(R)-phenyl-1-pyyrolidinyl)carbonyl]-2-quinoxalinepentanoic acid] fall in the same range of Ki: 2.1 to 20 nM for the first, 2.1 to 20 nM for the second.

`O=C(O)CCCCc1nc2cc(C(=O)N3CCC[C@@H](c4ccccc4)C3)ccc2nc1-c1ccccc1` [compound 142, 3-phenyl-7-[(3(S)-phenyl-1-piperidinyl)carbonyl]-2-quinoxalinepentanoic acid] and `O=C(O)CCCCc1nc2cc(C(=O)N3CCC[C@H](c4ccccc4)C3)ccc2nc1-c1ccccc1` [compound 143, 3-phenyl-7-[(3(R)-phenyl-1-piperidinyl)carbonyl]-2-quinooxalinepentanoic acid] fall in the same range of Ki: 2.1 to 20 nM for the first, 2.1 to 20 nM for the second.

— patent US9469615B2, “Quinoxalines and AZA-quinoxalines as CRTH2 receptor modulators” (Merck Sharp & Dohme Corp., priority 2010, dated 2016)
